Tested on in the first data set: not given
Test: not given
Conditions: not given
Turning to `CN(Cc1ccc(C2=NCCN2)cc1)C(=O)COCCN(C1CC1)S(=O)(=O)c1ccccc1Cl.O=C(O)C(F)(F)F`, the melting point (in general, the temperature, or range, at which the solid turns liquid) worked out at 52 °C.
Take `CN(Cc1ccc(C2=NCCN2)cc1)C(=O)/C=C/CN(C)S(=O)(=O)c1cccc2ccccc12.O=C(O)C(F)(F)F`: the melting point stood at 77 °C.
The same measure, in the same setting: for `CC(C)N(CCC(=O)N(C)Cc1ccc(C2=NCCN2)cc1)S(=O)(=O)c1c(Cl)cccc1Cl.O=C(O)C(F)(F)F` the value was 75 °C.
Still for that read-out and setting: the same measure for `Cc1c(Cl)ccc(S(=O)(=O)N(CCOCC(=O)N(C)Cc2ccc(C3=NCCN3)cc2)CCc2ccccc2)c1Cl.O=C(O)C(F)(F)F`: 85 °C; for `CN(Cc1ccc(C2=NCCN2)cc1)C(=O)COCCN(C)S(=O)(=O)c1cccc2ccccc12.O=C(O)C(F)(F)F`: 66 °C; for `Cc1c(Cl)ccc(S(=O)(=O)N(CCCCC(=O)N(C)Cc2ccc(C3=NCCN3)cc2)CCC(N)=O)c1Cl.O=C(O)C(F)(F)F`: 85 °C.
Still for that read-out and setting: the same measure for `CN(Cc1ccc(C2=NCCN2)cc1)C(=O)CCCCN(C1CC1)S(=O)(=O)c1cccc(Cl)c1Cl.O=C(O)C(F)(F)F` [Example 16, 5-[cyclopropyl[(2,3-dichlorophenyl)sulphonyl]amino]-N-[[4-(4,5-dihydro-1H-imidazol-2-yl)phenyl]methyl]-N-methyl-pentanamide, trifluoroacetate]: 70 °C; for `CN(Cc1ccc(C2=NCCN2)cc1)C(=O)COCCN(C)S(=O)(=O)c1ccc(Cl)c(Cl)c1Cl.O=C(O)C(F)(F)F`: 70 °C; for `CC(C)N(CCC(=O)N(C)Cc1ccc(C2=NCCN2)cc1)S(=O)(=O)c1cccc(Cl)c1Cl.O=C(O)C(F)(F)F`: 92 °C.
Molecule `CN(Cc1ccc(C2=NCCN2)cc1)C(=O)CCCCN(C1CC1)S(=O)(=O)c1ccccc1Cl.O=C(O)C(F)(F)F` gave a melting point of 55 °C.
In turn, `CN(Cc1ccc(C2=NCCN2)cc1)C(=O)CCN(CC(F)(F)F)S(=O)(=O)c1c(Cl)cccc1Cl.O=C(O)C(F)(F)F` displayed a melting point of 80 °C.
Still for that read-out and setting: the same measure for `Cc1c(Cl)ccc(S(=O)(=O)NC/C=C/C(=O)N(C)Cc2ccc(C3=NCCN3)cc2)c1Cl.O=C(O)C(F)(F)F`: 99 °C; for `CN(Cc1ccc(C2=NCCN2)cc1)C(=O)COCCN(C)S(=O)(=O)c1c(Cl)cc(C(F)(F)F)cc1Cl.O=C(O)C(F)(F)F`: 60 °C; for `CC(C)N(CCCCC(=O)N(C)Cc1ccc(C2=NCCN2)cc1)S(=O)(=O)c1c(Cl)cccc1Cl.O=C(O)C(F)(F)F`: 60 °C.
On the same count and under the same terms, the same measure for `Cc1c(Cl)ccc(S(=O)(=O)N(CCCCC(=O)N(C)Cc2ccc(C3=NCCN3)cc2)CC(N)=O)c1Cl.O=C(O)C(F)(F)F` [Example 19, 5-[(2-amino-2-oxoethyl)[(2,4-dichloro-3-methylphenyl)sulphonyl]-amino]-N-[[4-(4,5-dihydro-1H-imidazol-2-yl)phenyl]methyl]-N-methyl-pentanamide, trifluoroacetate]: 90 °C; for `CN(Cc1ccc(C2=NCCN2)cc1)C(=O)/C=C/CN(C)S(=O)(=O)c1ccccc1C(F)(F)F.O=C(O)C(F)(F)F`: 50 °C; for `CN(Cc1ccc(C2=NCCN2)cc1)C(=O)COCCN(C1CC1)S(=O)(=O)c1cccc(Cl)c1Cl.O=C(O)C(F)(F)F`: 65 °C.
Turning to `CN(Cc1ccc(C2=NCCN2)cc1)C(=O)COCCN(C)S(=O)(=O)c1ccccc1C(F)(F)F.O=C(O)C(F)(F)F`, the melting point is 60 °C.
The same measure, in the same setting: the same measure for `CN(Cc1ccc(C2=NCCN2)cc1)C(=O)COCCN(C1CC1)S(=O)(=O)c1c(Cl)cccc1Cl.O=C(O)C(F)(F)F`: 60 °C; for `CN(Cc1ccc(C2=NCCN2)cc1)C(=O)CCN(C1CC1)S(=O)(=O)c1c(Cl)cccc1Cl.O=C(O)C(F)(F)F`: 65 °C.
On the same count and under the same terms, the same measure for `CN(Cc1ccc(C2=NCCN2)cc1)C(=O)CCN(CC(F)(F)F)S(=O)(=O)c1cccc(Cl)c1Cl.O=C(O)C(F)(F)F`: 88 °C; for `CN(Cc1ccc(C2=NCCN2)cc1)C(=O)COCCN(C)S(=O)(=O)c1cccc(C(F)(F)F)c1.O=C(O)C(F)(F)F`: 60 °C.
On the same count and under the same terms, the same measure for `CN(Cc1ccc(C2=NCCN2)cc1)C(=O)/C=C/CN(C)S(=O)(=O)c1ccc(OC(F)(F)F)cc1Cl.O=C(O)C(F)(F)F`: 68 °C; for `CN(Cc1ccc(C2=NCCN2)cc1)C(=O)CCN(C1CC1)S(=O)(=O)c1cccc(Cl)c1Cl.O=C(O)C(F)(F)F`: 80 °C.

The next data set relates to formalin-induced pain response in mice. Put plainly: formalin-induced pain response test in mice. It is filed as in vivo. Conditions: formalin 0.92% in hind paw, licking time 15 to 30 min after injection, dose 1 mg/kg i.v. The method, then: The compounds of the present invention were evaluated for their analgesic properties in the formalin-induced pain response test in mice (Shibata, M., Ohkubo, T., Takahashi, H. & R. Inoki. Modified formalin test: characteristic biphasic pain response. Pain, 38, 347-352). To summarize, formalin (0.92% in saline solution) is injected into the hind paw and the paw licking time, which reflects pain intensity, is recorded from 0 to 5 min (1st phase) and from 15 to 30 min (2nd phase) after injection.
Regarding “N-[[4-(4,5-dihydro-1H-imidazol-2-yl)phenyl]methyl]-2-[2-[[(4-methoxy-2,6-dimethylphenyl)sulphonyl]methylamino]ethoxy]-N-methyl-acetamide, trifluoroacetate [Example 49]”, the “% inhibition of the 2nd paw licking phase” value (“% inhibition” for short) came out at 40%.

Still in this data set, the particulars now being: formalin 0.92% in hind paw, licking time 15 to 30 min after injection, dose 10 mg/kg i.p.
As to `Cc1c(Cl)ccc(S(=O)(=O)N(CCCCC(=O)N(C)Cc2ccc(C3=NCCN3)cc2)CC(N)=O)c1Cl.O=C(O)C(F)(F)F` [Example 19, 5-[(2-amino-2-oxoethyl)[(2,4-dichloro-3-methylphenyl)sulphonyl]-amino]-N-[[4-(4,5-dihydro-1H-imidazol-2-yl)phenyl]methyl]-N-methyl-pentanamide, trifluoroacetate], the “% inhibition” value is recorded as 42%.

Staying with this data set, now noted: formalin 0.92% in hind paw, licking time 15 to 30 min after injection, dose 100 mg/kg p.o.
Consider `CN(Cc1ccc(C2=NCCN2)cc1)C(=O)CCCCN(C1CC1)S(=O)(=O)c1cccc(Cl)c1Cl.O=C(O)C(F)(F)F` [Example 16, 5-[cyclopropyl[(2,3-dichlorophenyl)sulphonyl]amino]-N-[[4-(4,5-dihydro-1H-imidazol-2-yl)phenyl]methyl]-N-methyl-pentanamide, trifluoroacetate], for which the “% inhibition” value is 80%.
In the case of “5-[[(2,3-dichlorophenyl)sulphonyl]methylamino]-N-[[4-(4,5-dihydro-1H-imidazol-2-yl)phenyl]methyl]-N-methyl-pentanamide, trifluoroacetate [Example 9]”, the “% inhibition” value was determined as 60%.

The values are drawn from patent US7361687B2, “Arylsulphonamide derivatives and methods of preparing” (Laboratoires Fournier SA, priority 2002, dated 2008).
